Measurements as given in BindingDB's records for doi:10.1021/jm2013997 (Oxagen, 2012).

Legend:
[1] = Antagonist activity at CRTH2 in human eosinophils assessed as inhibition of PGD2-induced shape change by gated autofluorescence forward scatter analysis
[2] = Partial antagonist activity at CRTH2 in human eosinophils assessed as inhibition of PGD2-induced shape change by FACS analysis

SMILES	IC50 [1] [nM]	EC50 [2] [nM]
C[C@H](Oc1ccc(F)cc1-c1ccc(C(=O)N2CCCC2(C)C)c(Cl)c1)C(=O)O	44	–
CN(C)c1nc(Cc2ccc(NC(=O)c3ccc(C(F)(F)F)cc3)cc2)nc(N(C)C)c1CC(=O)O [2-(4,6-bis(dimethylamino)-2-(4-(4-(trifluoromethyl)benzamido)benzyl)pyrimidin-5-yl)acetic acid]	626	–
COc1ccc2c(c1)c(CC(=O)O)c(C)n2C(=O)c1ccc(Cl)cc1 [indometacin]	–	389
